The results in this text go back to ChEMBL document CHEMBL1141234, “Synthesis and SAR of highly potent dual 5-HT1A and 5-HT1B antagonists as potential antidepressant drugs” (Bioorg Med Chem Lett, 2005).

The nature of series [1]: Ratio of drug level in brain against plasma in rat. It counts as ADME, organism-based. The note with it: read-out: BBR.
Series [2] concerns the target Sodium-dependent serotonin transporter (Homo sapiens) (UniProt P31645). The experiment in a line: Inhibitory activity against SERT upto 10 uM.
Series [3] has as its target T1, 5-hydroxytryptamine receptor 1A (Rattus norvegicus, UniProt P19327).
T1 sequence (P19327 whole entry): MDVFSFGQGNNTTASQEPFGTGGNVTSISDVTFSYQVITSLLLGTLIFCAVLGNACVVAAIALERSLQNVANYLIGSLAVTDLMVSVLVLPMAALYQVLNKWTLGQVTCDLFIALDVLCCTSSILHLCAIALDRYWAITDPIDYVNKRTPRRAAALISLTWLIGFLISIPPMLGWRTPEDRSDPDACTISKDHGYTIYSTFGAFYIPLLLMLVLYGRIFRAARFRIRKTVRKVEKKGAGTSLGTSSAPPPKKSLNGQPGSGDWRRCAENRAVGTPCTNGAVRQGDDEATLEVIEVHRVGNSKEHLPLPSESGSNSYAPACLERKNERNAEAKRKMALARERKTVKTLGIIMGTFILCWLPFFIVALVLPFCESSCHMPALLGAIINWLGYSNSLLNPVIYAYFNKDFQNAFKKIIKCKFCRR
The series can be described thus: Binding affinity for rat 5HT1A receptor.

Series [4] has as its target Sodium-dependent dopamine transporter (Homo sapiens) (UniProt Q01959). The series can be described thus: Inhibitory activity against DAT upto 10 uM.
The target of series [5] is T2, 5-hydroxytryptamine receptor 1A (Homo sapiens, UniProt P08908).
T2 sequence (P08908 whole entry): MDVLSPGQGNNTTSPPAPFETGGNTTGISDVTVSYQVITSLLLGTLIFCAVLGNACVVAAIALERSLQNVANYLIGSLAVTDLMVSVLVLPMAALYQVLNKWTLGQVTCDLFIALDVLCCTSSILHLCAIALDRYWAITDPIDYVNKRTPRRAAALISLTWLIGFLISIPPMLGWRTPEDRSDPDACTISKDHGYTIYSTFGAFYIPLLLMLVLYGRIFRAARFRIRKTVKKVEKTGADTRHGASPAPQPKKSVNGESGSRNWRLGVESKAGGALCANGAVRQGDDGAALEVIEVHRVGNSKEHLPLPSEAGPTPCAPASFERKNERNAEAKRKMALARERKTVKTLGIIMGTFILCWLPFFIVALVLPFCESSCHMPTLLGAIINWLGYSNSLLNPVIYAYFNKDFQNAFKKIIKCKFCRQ
The series can be described thus: Displacement of [35S]GTP-gamma-S from human recombinant 5HT1A receptor. It counts as functional. (In general: Loss of bound radioactivity is the signal in a displacement assay; it reports binding, not function.)

The target of series [6] is 5-hydroxytryptamine receptor 1B (Homo sapiens, UniProt P28222). The experiment in a line: Intrinsic activity for 5HT1B receptor in FLIPR assay. Format: functional.
Chain of 5-hydroxytryptamine receptor 1B (Homo sapiens, UniProt P28222) (P28222 whole entry): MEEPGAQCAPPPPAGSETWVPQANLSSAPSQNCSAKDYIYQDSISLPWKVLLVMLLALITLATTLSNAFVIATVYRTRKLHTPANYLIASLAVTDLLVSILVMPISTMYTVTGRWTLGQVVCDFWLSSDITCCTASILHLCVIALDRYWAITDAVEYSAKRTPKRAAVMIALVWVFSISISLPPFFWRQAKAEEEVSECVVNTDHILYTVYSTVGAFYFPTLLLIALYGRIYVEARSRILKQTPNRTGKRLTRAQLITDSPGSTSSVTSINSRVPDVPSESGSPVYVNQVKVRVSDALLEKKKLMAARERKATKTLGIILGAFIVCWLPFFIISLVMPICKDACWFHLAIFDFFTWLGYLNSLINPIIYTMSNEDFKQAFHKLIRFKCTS
For series [7], the target named is 5-hydroxytryptamine receptor 1B (Rattus norvegicus, UniProt P28564). The series can be described thus: Binding affinity for rat 5HT1B receptor.
Chain of 5-hydroxytryptamine receptor 1B (Rattus norvegicus, UniProt P28564) (P28564 whole entry): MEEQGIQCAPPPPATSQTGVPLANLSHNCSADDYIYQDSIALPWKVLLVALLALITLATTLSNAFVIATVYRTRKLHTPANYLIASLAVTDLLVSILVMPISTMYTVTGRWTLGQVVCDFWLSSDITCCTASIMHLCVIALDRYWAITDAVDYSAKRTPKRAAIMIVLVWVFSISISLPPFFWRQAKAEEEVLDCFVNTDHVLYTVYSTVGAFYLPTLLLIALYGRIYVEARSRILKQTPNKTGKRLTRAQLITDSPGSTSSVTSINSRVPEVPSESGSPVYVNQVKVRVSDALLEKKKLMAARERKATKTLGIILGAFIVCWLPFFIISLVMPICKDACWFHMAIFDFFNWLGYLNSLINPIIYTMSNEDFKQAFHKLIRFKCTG
Series [8] has as its target T3, Adrenergic receptor alpha-1 (Homo sapiens, UniProt P35348+P25100+P35368).
T3 sequence (P35348 whole entry): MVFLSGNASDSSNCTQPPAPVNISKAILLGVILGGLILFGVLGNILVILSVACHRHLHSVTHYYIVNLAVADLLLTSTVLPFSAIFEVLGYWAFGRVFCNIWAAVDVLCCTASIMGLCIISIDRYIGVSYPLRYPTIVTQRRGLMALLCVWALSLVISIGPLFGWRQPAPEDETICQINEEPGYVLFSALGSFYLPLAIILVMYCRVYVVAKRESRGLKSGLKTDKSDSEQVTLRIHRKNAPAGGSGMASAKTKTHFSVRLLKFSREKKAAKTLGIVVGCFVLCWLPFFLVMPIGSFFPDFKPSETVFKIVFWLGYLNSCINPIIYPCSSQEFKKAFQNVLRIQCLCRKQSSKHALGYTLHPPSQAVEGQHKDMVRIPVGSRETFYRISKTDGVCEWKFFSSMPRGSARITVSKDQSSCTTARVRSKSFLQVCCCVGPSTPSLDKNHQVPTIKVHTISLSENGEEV
T3 sequence (P25100 whole entry): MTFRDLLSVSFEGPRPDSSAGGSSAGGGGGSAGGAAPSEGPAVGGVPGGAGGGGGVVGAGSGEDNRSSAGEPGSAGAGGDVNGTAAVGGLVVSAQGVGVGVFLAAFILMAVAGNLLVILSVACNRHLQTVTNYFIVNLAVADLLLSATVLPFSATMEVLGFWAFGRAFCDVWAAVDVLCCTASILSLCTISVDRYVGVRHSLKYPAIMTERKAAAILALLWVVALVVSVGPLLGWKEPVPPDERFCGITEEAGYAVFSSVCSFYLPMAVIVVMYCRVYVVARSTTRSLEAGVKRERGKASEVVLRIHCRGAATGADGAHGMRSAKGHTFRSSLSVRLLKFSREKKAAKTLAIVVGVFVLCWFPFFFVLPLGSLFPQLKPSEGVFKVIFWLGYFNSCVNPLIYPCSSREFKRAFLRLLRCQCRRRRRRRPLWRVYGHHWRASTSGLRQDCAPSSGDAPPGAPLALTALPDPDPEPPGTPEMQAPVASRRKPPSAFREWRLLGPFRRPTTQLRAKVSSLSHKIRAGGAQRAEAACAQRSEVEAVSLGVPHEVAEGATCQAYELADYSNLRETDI
T3 sequence (P35368 whole entry): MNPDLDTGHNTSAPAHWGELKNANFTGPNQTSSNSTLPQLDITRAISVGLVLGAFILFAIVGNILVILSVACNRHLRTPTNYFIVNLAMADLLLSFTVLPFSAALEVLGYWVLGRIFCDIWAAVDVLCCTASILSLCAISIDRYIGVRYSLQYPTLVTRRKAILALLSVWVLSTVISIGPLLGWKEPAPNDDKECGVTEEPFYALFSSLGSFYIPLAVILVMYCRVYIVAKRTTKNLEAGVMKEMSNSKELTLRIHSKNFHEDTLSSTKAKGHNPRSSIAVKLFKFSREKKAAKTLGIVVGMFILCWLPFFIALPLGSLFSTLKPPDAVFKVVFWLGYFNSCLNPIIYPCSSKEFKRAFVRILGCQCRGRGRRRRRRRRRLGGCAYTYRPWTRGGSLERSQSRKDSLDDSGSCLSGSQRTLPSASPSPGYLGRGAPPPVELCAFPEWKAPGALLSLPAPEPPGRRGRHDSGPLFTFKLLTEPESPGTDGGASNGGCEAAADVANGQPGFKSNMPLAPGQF
The experiment in a line: Inhibitory activity against Adrenergic alpha-1 receptor. It counts as protein assay.

pIC50, pKi: −log10 of the molar value. Activity calls are given as the source filed them. The calls are words filed in the database; no cut-off is given here.

Chain of Sodium-dependent serotonin transporter (Homo sapiens) (P31645 whole entry, looked up): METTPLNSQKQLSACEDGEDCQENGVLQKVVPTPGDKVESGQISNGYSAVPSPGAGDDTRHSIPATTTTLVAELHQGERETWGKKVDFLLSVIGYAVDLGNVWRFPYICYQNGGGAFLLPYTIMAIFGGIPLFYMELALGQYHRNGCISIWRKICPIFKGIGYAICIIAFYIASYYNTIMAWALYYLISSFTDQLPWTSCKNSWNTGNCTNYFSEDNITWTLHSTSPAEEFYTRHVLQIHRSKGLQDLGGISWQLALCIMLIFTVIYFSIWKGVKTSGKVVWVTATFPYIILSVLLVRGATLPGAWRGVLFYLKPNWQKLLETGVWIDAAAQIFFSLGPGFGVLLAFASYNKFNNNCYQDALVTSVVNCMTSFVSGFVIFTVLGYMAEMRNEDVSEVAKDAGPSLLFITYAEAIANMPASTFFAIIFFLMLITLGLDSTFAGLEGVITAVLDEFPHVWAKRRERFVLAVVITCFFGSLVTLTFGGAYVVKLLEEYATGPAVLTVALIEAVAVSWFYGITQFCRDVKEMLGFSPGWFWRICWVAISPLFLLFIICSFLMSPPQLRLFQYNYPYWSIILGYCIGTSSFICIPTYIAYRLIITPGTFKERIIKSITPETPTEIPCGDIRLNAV
Chain of Sodium-dependent dopamine transporter (Homo sapiens) (Q01959 whole entry): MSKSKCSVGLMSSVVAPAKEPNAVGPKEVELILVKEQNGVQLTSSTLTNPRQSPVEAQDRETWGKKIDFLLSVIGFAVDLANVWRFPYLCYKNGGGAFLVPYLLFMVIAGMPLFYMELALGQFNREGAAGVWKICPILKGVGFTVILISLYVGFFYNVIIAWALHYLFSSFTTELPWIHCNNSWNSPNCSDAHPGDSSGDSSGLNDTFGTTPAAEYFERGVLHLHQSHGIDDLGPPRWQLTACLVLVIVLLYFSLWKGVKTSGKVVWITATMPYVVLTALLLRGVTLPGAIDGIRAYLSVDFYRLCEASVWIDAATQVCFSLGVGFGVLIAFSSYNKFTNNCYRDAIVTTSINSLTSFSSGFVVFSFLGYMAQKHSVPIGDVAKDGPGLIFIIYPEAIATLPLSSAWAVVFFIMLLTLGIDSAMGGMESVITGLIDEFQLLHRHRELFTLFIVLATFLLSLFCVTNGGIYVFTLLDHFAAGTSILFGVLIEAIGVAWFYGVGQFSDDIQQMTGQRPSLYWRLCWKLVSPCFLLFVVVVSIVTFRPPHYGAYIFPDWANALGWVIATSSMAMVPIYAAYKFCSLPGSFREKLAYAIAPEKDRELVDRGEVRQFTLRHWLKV

In general, pKi refers to the negative decadic logarithm of the Ki, by convention in mol/L. For orientation: pIC50 means the negative decadic logarithm of the IC50, by convention in mol/L. For orientation: Emax means the greatest response seen or fitted, relative to the assay's reference. A word on the Ki: it is a measure of affinity in units of concentration, obtained from inhibition or displacement. Consider `CN1CCc2c(sc3ncn(CCN4CCN(c5cncc6ccccc56)CC4)c(=O)c23)C1`, for which the Kp in series [1] was 10.2. The outcome in series [2] and in series [4] was inactive. For the same compound, the pKi is 7.79 in series [3], 8.33 in series [5] and 7.48 in series [7]. Further, the pIC50 in series [5] was 6.50. The same compound had an Emax in series [6] of 7%. This compound showed a Ki in series [8] of 13.7 nM.
